Assay results from PMC5634495 (Scientific Reports, 2017).

Key:
[1] = tested on: nAChR-mediated pharyngeal pumping in C. elegans (nAChR EAT-2); set-up: species or system Caenorhabditis elegans; conditions: in vivo
[2] = tested on: locomotor activity of mice; conditions: mouse, in vivo
[3] = target: α4β2 nAChR (Homo sapiens, UniProt P17787+P43681); assay: cell-based
[4] = target: T1, acetylcholine binding protein derived from Lymnaea stagnalis (L-AChBP) (Lymnaea stagnalis, UniProt P58154 20-229); assay: SPR; conditions: both partners purified
T1 construct: also called Synthetic Lymnaea stagnalis AChBP
T1 sequence (P58154 20-229): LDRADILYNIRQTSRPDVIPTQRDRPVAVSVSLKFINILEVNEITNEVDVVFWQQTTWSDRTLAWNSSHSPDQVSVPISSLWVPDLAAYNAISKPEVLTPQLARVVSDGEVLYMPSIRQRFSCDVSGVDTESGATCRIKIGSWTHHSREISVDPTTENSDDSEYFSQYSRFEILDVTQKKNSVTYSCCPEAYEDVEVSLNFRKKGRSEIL

α4β2 nAChR, sequence (P43681 29-627 limits assumed): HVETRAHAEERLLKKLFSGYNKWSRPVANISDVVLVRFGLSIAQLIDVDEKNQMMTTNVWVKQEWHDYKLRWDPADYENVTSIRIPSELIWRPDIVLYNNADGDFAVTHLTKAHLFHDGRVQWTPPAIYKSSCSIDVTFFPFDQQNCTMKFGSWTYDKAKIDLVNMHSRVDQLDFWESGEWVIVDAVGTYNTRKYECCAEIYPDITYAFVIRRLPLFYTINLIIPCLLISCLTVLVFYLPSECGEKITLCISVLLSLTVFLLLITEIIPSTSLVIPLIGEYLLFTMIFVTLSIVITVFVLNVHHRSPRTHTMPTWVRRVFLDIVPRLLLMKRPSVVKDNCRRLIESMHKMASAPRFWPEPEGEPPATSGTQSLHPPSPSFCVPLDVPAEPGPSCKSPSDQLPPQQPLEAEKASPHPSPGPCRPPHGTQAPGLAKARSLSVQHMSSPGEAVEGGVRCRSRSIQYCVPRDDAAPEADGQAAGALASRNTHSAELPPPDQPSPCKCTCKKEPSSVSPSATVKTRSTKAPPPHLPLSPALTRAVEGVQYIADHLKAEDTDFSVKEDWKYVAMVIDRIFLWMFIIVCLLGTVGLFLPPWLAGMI
α4β2 nAChR, sequence (P17787 26-502 limits assumed): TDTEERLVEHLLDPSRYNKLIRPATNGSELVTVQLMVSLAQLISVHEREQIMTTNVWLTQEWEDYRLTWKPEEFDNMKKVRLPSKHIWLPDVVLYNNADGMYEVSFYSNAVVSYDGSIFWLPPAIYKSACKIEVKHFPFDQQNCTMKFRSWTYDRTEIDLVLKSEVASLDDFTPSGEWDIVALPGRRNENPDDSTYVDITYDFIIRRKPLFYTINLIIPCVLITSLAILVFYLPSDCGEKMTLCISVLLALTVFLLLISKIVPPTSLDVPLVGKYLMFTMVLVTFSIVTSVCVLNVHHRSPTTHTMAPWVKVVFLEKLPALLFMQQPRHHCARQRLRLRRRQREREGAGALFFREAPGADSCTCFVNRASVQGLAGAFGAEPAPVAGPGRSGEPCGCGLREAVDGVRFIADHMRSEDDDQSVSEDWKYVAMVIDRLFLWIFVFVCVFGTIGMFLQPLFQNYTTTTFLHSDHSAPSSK

| Molecule | average pharyngeal pumping frequency (in words) [1] | worms in which pharyngeal pumping was absent [1] | locomotor activity in novel-environment behaviour test (in words) [2] | IC50 [3] [µM] | binding result [4] |
| --- | --- | --- | --- | --- | --- |
| CC[C@H](C)[C@H](NC(=O)[C@H](CC(=O)O)NC(=O)[C@H](CS)NC(=O)[C@H](CO)NC(=O)[C@@H](NC(=O)CNC(=O)[C@H](CC(C)C)NC(=O)[C@H](CCCNC(=N)N)NC(=O)[C@H](C)NC(=O)[C@H](CC(N)=O)NC(=O)[C@H](CCC(=O)O)NC(=O)[C@@H]1CCCN1C(=O)[C@H](CCSC)NC(=O)[C@H](Cc1c[nH]c2ccccc12)NC(=O)[C@@H](NC(=O)[C@@H](NC(=O)[C@@H](N)Cc1ccc(O)cc1)[C@@H](C)O)[C@@H](C)CC)[C@@H](C)O)C(=O)N[C@@H](Cc1ccccc1)C(=O)N[C@H](C(=O)N[C@@H](CC(N)=O)C(=O)N[C@@H](CO)C(=O)N[C@@H](CCCNC(=N)N)C(=O)NCC(=O)N[C@@H](CCCCN)C(=O)N[C@@H](CCCNC(=N)N)C(=O)N[C@@H](C)C(=O)N[C@@H](CO)C(=O)N[C@@H](CCCCN)C(=O)NCC(=O)O)[C@@H](C)O [RV-183A] | significantly reduced | six out of seven | increased locomotor activity | 465 to 2620 |  |
| CC[C@H](C)[C@H](NC(=O)[C@H](CC(=O)O)NC(=O)[C@H](CS)NC(=O)[C@H](CO)NC(=O)[C@@H](NC(=O)CNC(=O)[C@H](CC(C)C)NC(=O)[C@H](CCCNC(=N)N)NC(=O)[C@@H]1CCCN1C(=O)[C@H](CC(N)=O)NC(=O)[C@H](CCC(=O)O)NC(=O)[C@@H]1CCCN1C(=O)[C@H](CCSC)NC(=O)[C@H](Cc1c[nH]c2ccccc12)NC(=O)[C@@H](NC(=O)[C@@H](NC(=O)[C@@H](N)Cc1ccc(O)cc1)[C@@H](C)O)[C@@H](C)CC)[C@@H](C)O)C(=O)N[C@@H](Cc1ccccc1)C(=O)N[C@H](C(=O)N[C@@H](CC(N)=O)C(=O)N[C@@H](CO)C(=O)N[C@@H](CCCNC(=N)N)C(=O)NCC(=O)N[C@@H](CCCCN)C(=O)N[C@@H](CCCNC(=N)N)C(=O)N[C@@H](C)C(=O)N[C@@H](CO)C(=O)N[C@@H](CCCCN)C(=O)NCC(=O)O)[C@@H](C)O [RV-183P] |  |  | increased locomotor activity | 185 to 314 |  |
| GSEPKWYRTKDRASPGSNFTITLMGRCNI [Scrambled, reference compound] |  |  | No difference |  |  |
| YTIWMPENLRLGTSCDIFTNSRGKRASKG [RV-183L] |  |  |  |  | binds |
| YTIWMPENPRLGTSCDIFTNSRGKRASKG [RV-183P] |  |  |  |  | binds |
